Where two headings read alike, the source gives them in different places.
What was measured:
HEMs = assay: Melanin synthesis in L-tyrosine-stimulated HEMs; format: cell-based, human; conditions: for effect on melanin synthesis: concentrations of up to 10 μM
Method: Human epidermal melanocytes (HEM) derived from neonatal human foreskins were purchased from Cascade Biologics (Portland, Oreg., USA). The HEMs were cultivated in Medium 254 supplemented with human melanocyte growth supplements (Cascade Biologics) and antibiotics.
The extracellular melanin levels were evaluated by measuring the absorbance of the conditioned media at a wavelength of 490 nm, while the intracellular melanin levels were evaluated after extracting melanin from the cells using 0.1 M NaOH at 60° C. for 60 minutes. The values for melanin content were normalized with respect to the protein content in each sample. The protein content was evaluated using the Bio-Rad DC assay (Bio-Rad Laboratories, Inc., Hercules, Calif., USA).

[1] = system: cultivated melanocytes and a reconstituted skin tissue model; conditions: cited from earlier work
[2] = system: Human epidermal melanocytes (HEM); conditions: HEMs, 48 hours
[3] = system: human epidermal melanocytes; conditions: cited from earlier work

For `O=C(O)CO` [GA, glycolic acid], the “effect on melanin synthesis” value (HEMs) was “no significant effect”.
For `CC(=O)Oc1ccc(C=Cc2cc(OC(C)=O)cc(OC(C)=O)c2)cc1` [RTA, resveratryl triacetate], the stability to oxidation ([1]; compared to resveratrol) is listed as “higher stability”, the toxicity ([1]; compared to resveratrol) is listed as “less toxic” and the melanin synthesis ([1]; cultivated melanocytes and reconstituted skin tissue model) is listed as “effective inhibitor”. The cytotoxicity ([2]; concentrations above 30 μM) was “showed cytotoxicity” and the cytotoxicity ([2]; concentrations below 30 μM) was “barely showed cytotoxicity”.
With `OC[C@H]1O[C@@H](Oc2ccc(O)cc2)[C@H](O)[C@@H](O)[C@@H]1O` [arbutin] the “effect on melanin synthesis” value (HEMs) was “no effect” and the “effect on melanin synthesis” value (HEMs; listed as Arbutin) was “no significant effect”.
In the case of `Oc1ccc(C=Cc2cc(O)cc(O)c2)cc1` [resveratrol], the “activity of MITF and TYR promoter” value [3] is given as “suppresses” and the melanin synthesis [3] is given as “inhibit melanin synthesis”.
In the case of `O=C(CO)Oc1ccc(/C=C/c2cc(OC(=O)CO)cc(OC(=O)CO)c2)cc1` [resveratryl triglycolate], the melanin level (HEMs) was “reduced”.

Source: patent US10662140B2, “Method for skin-whitening using composition containing resveratryl triglycolate” (KYUNGPOOK NATIONAL UNIVERSITY INDUSTRY-ACADEMIC COOPERATION …, priority 2016, dated 2020)
